Assay in all cases: relative viability (nuclei count vs DMSO), 5 days (fraction); higher = more cells survive
Compound in assay [1]: C1CSC2=C(C(=O)N1)SC3=C2C=C(C=C3)O [kb NB 142-70] + CC(C)C[C@H](NC(=O)[C@H](Cc1ccccc1)NC(=O)c1cnccn1)B(O)O [Bortezomib] (partner 0.002 µM)
Summed up:
(§1)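 Relative viability divides the nuclei count in treated wells by that in vehicle wells. Lung cancer cell lines were seeded in 1536-well plates, dosed by pin tool the next day, and fixed and stained after 5 days in one step with final 0.05% Triton X-100, 1% formaldehyde and 1 ug/ml Hoechst. Dosing was a single drug or a fixed anchor-drug dose plus five library-drug doses (not always all listed) in √10 steps, and values are medians of duplicate plates imaged at 4×.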

Compound in assay [2]: C1CSC2=C(C(=O)N1)SC3=C2C=C(C=C3)O [kb NB 142-70] + CC1(C)CCC(c2ccc(Cl)cc2)=C(CN2CCN(c3ccc(C(=O)NS(=O)(=O)c4ccc(N[C@H](CCN5CCOCC5)CSc5ccccc5)c(S(=O)(=O)C(F)(F)F)c4)cc3)CC2)C1 [Navitoclax] (partner 0.5 µM)
In a few lines:
as §1

Compound in assay [3]: C1CSC2=C(C(=O)N1)SC3=C2C=C(C=C3)O [kb NB 142-70] + Nc1nc2[nH]cc(CCc3ccc(C(=O)N[C@@H](CCC(=O)O)C(=O)O)cc3)c2c(=O)[nH]1 [Pemetrexed] (partner 0.2 µM)
Summed up: as §1

Compound in assay [4]: NCC(=O)Nc1ccc(-n2nc(C(F)(F)F)cc2-c2ccc3c(ccc4ccccc43)c2)cc1 + N=C(N)NC(=N)NCCc1ccccc1 [Phenformin] (partner 250 µM)
Summed up: as §1

Compound in assay [5]: NCC(=O)Nc1ccc(-n2nc(C(F)(F)F)cc2-c2ccc3c(ccc4ccccc43)c2)cc1 + Nc1nc2[nH]cc(CCc3ccc(C(=O)N[C@@H](CCC(=O)O)C(=O)O)cc3)c2c(=O)[nH]1 [Pemetrexed] (partner 0.2 µM)
Summed up: as §1

As to Calu-6, the relative viability came out at 1.01 in assay [1] (first compound 0.1 µM); 0.946 in assay [1] (first compound 1 µM); 0.62 in assay [1] (first compound 3.162 µM); 0.859 in assay [2] (first compound 0.1 µM); 0.891 in assay [2] (first compound 1 µM); 0.376 in assay [2] (first compound 3.162 µM).

With ChaGo-K-1, the relative viability in assay [1] (first compound 0.1 µM) came to 1.06; in assay [1] (first compound 1 µM), 1.1; in assay [1] (first compound 3.162 µM), 0.951; in assay [2] (first compound 0.1 µM), 1.17; in assay [2] (first compound 1 µM) it was 1.11; in assay [2] (first compound 3.162 µM) it was 0.885. The relative viability in assay [3] (first compound 0.1 µM) turned out to be 0.261; in assay [3] (first compound 1 µM) it was 0.26; in assay [3] (first compound 3.162 µM), 0.257; in assay [4] (first compound 0.02 µM), 0.438; in assay [4] (first compound 0.06325 µM), 0.495; in assay [4] (first compound 0.2 µM), 0.443. Also, the relative viability turned out to be 0.522 in assay [4] (first compound 0.6325 µM); 0.519 in assay [4] (first compound 2 µM); 0.256 in assay [5] (first compound 0.02 µM); 0.263 in assay [5] (first compound 0.06325 µM); 0.263 in assay [5] (first compound 0.2 µM); 0.27 in assay [5] (first compound 0.6325 µM). Moreover, the relative viability in assay [5] (first compound 2 µM) was found to be 0.264.

Take EBC-1: the relative viability in assay [1] (first compound 0.1 µM) stood at 0.592; in assay [1] (first compound 1 µM), 0.546; in assay [1] (first compound 3.162 µM), 0.358; in assay [2] (first compound 0.1 µM), 0.415; in assay [2] (first compound 1 µM), 0.322; in assay [2] (first compound 3.162 µM) it was 0.22.

As to EKVX, the relative viability in assay [1] (first compound 0.1 µM) amounted to 0.994; in assay [1] (first compound 1 µM), 1.05; in assay [1] (first compound 3.162 µM), 0.993; in assay [2] (first compound 0.1 µM), 0.883; in assay [2] (first compound 1 µM), 1.01; in assay [2] (first compound 3.162 µM) it was 0.87. The relative viability in assay [3] (first compound 0.1 µM) turned out to be 0.35; in assay [3] (first compound 1 µM), 0.399; in assay [3] (first compound 3.162 µM), 0.378; in assay [4] (first compound 0.02 µM), 0.228; in assay [4] (first compound 0.06325 µM), 0.273; in assay [4] (first compound 0.2 µM), 0.218. In addition, the relative viability amounted to 0.236 in assay [4] (first compound 0.6325 µM); 0.219 in assay [4] (first compound 2 µM); 0.38 in assay [5] (first compound 0.02 µM); 0.358 in assay [5] (first compound 0.06325 µM); 0.408 in assay [5] (first compound 0.2 µM); 0.439 in assay [5] (first compound 0.6325 µM). The relative viability in assay [5] (first compound 2 µM) came to 0.403.

With EMC-BAC-2, the relative viability was 1.08 in assay [1] (first compound 0.1 µM); 1.07 in assay [1] (first compound 1 µM); 0.812 in assay [1] (first compound 3.162 µM); 1.16 in assay [2] (first compound 0.1 µM); 1.28 in assay [2] (first compound 1 µM); 1.27 in assay [2] (first compound 3.162 µM). Also, the relative viability was determined as 0.438 in assay [3] (first compound 0.1 µM); 0.483 in assay [3] (first compound 1 µM); 0.451 in assay [3] (first compound 3.162 µM); 0.472 in assay [4] (first compound 0.02 µM); 0.488 in assay [4] (first compound 0.06325 µM); 0.549 in assay [4] (first compound 0.2 µM). For the same cell line, the relative viability in assay [4] (first compound 0.6325 µM) was found to be 0.56; in assay [4] (first compound 2 µM) it was 0.541; in assay [5] (first compound 0.02 µM), 0.403; in assay [5] (first compound 0.06325 µM) it was 0.457; in assay [5] (first compound 0.2 µM), 0.465; in assay [5] (first compound 0.6325 µM), 0.421. Besides, the relative viability in assay [5] (first compound 2 µM) was found to be 0.408.

EPLC-272H: the relative viability worked out at 0.926 in assay [1] (first compound 0.1 µM); 1.06 in assay [1] (first compound 1 µM); 0.72 in assay [1] (first compound 3.162 µM); 1.26 in assay [2] (first compound 0.1 µM); 1.13 in assay [2] (first compound 1 µM); 0.584 in assay [2] (first compound 3.162 µM). The relative viability in assay [3] (first compound 0.1 µM) was 0.433; in assay [3] (first compound 1 µM), 0.386; in assay [3] (first compound 3.162 µM), 0.176; in assay [4] (first compound 0.02 µM), 0.289; in assay [4] (first compound 0.06325 µM), 0.366; in assay [4] (first compound 0.2 µM), 0.261. The relative viability in assay [4] (first compound 0.6325 µM) stood at 0.324; in assay [4] (first compound 2 µM), 0.294; in assay [5] (first compound 0.02 µM) it was 0.275; in assay [5] (first compound 0.06325 µM), 0.395; in assay [5] (first compound 0.2 µM) it was 0.308; in assay [5] (first compound 0.6325 µM), 0.356. Besides, the relative viability in assay [5] (first compound 2 µM) stood at 0.315.

H3255: the relative viability in assay [1] (first compound 0.1 µM) turned out to be 0.822; in assay [1] (first compound 1 µM) it was 0.7; in assay [1] (first compound 3.162 µM), 0.822; in assay [2] (first compound 0.1 µM) it was 0.498; in assay [2] (first compound 1 µM), 0.538; in assay [2] (first compound 3.162 µM) it was 0.55. The relative viability in assay [3] (first compound 0.1 µM) worked out at 0.572; in assay [3] (first compound 1 µM), 0.568; in assay [3] (first compound 3.162 µM) it was 0.58; in assay [4] (first compound 0.02 µM) it was 0.343; in assay [4] (first compound 0.06325 µM) it was 0.341; in assay [4] (first compound 0.2 µM) it was 0.364. Further, the relative viability worked out at 0.334 in assay [4] (first compound 0.6325 µM); 0.435 in assay [4] (first compound 2 µM); 0.561 in assay [5] (first compound 0.02 µM); 0.49 in assay [5] (first compound 0.06325 µM); 0.552 in assay [5] (first compound 0.2 µM); 0.565 in assay [5] (first compound 0.6325 µM). In addition, the relative viability in assay [5] (first compound 2 µM) was 0.601.

Turning to HARA, the relative viability in assay [1] (first compound 0.1 µM) is 1.15; in assay [1] (first compound 1 µM), 1.06; in assay [1] (first compound 3.162 µM), 0.964; in assay [2] (first compound 0.1 µM) it was 1.15; in assay [2] (first compound 1 µM), 1.11; in assay [2] (first compound 3.162 µM), 1.08. Also, the relative viability in assay [3] (first compound 0.1 µM) turned out to be 0.251; in assay [3] (first compound 1 µM), 0.293; in assay [3] (first compound 3.162 µM) it was 0.225; in assay [4] (first compound 0.02 µM), 0.479; in assay [4] (first compound 0.06325 µM) it was 0.407; in assay [4] (first compound 0.2 µM), 0.456. The relative viability in assay [4] (first compound 0.6325 µM) worked out at 0.441; in assay [4] (first compound 2 µM) it was 0.53; in assay [5] (first compound 0.02 µM) it was 0.253; in assay [5] (first compound 0.06325 µM) it was 0.241; in assay [5] (first compound 0.2 µM) it was 0.258; in assay [5] (first compound 0.6325 µM), 0.245. Also, in assay [5] (first compound 2 µM), the relative viability worked out at 0.246.

(Values after the supplement of paper PMC10307832.)
